The results in this text go back to PubChem BioAssay AID1900 (Broad Institute, 2009).

The subject of this assay is SK(-)GAS Streptococcus pyogenes + kanamycin, BacTiterGlo viability, 6 h. Description: Streptococcus pyogenes SK(-)GAS viability under kanamycin – luminescence, BacTiterGlo, confirmation, counter-screen for streptokinase expression inhibitor project, dose response (AID 1900). (The purpose of a counterscreen is to sort out artefacts and off-target activity.)

Several values for one entry are separate records, joined by “and”; a condition that tells them apart may be missing. Equal values may be shown once.

In the case of `CNC(CC(C)C)C(=O)NC1C(=O)NC(CC(N)=O)C(=O)NC2C(=O)NC3C(=O)NC(C(=O)NC(C(=O)O)c4cc(O)cc(O)c4-c4cc3ccc4O)C(O)c3ccc(c(Cl)c3)Oc3cc2cc(c3OC2OC(CO)C(O)C(O)C2OC2CC(C)(N)C(O)C(C)O2)Oc2ccc(cc2Cl)C1O` (configuration not stated), the EC50 (as a rule, the midpoint of the concentration-response curve) was 211 nM.

As to `CN(C)c1ccnc2c[cH-]cc12.[Fe].c1ccc(-[c-]2[c-](-c3ccccc3)[c-](-c3ccccc3)[c-](-c3ccccc3)[c-]2-c2ccccc2)cc1` (configuration not stated), the EC50 was 989 nM and 334 nM.
